This note sets out measurements from patent US9073820B2, “Pharmaceutical compositions comprising napthamides” (OREGON HEALTH & SCIENCE UNIVERSITY, priority 2011, dated 2015).

A short description of series [1]: Maximum tolerated dose of Compound 4 (body weight). It counts as in vivo. As for the experimental part: The maximum tolerated dose (MTD) of compound 4 was evaluated in nude mice. In this study 4 groups were established, each with five mice per group. The compound was formulated in a suspension of 5% Tween-80/H2O. Compound 4 was administered orally at dose levels of 120, 60, and 30 mg/kg as QD for five days. The body weight was measured daily for a total of 11 days.

Series [2] concerns MDA-MB-468 cells (human breast cancer cells). In words: MTT cell growth inhibition, 72 h, MDA-MB-468. The note with it: MDA-MB-468, 72 h, read-out: MDA-MB-468 (GI50). It counts as cell-based. Here is the method: (§1) A549 (human lung cancer cells), MCF-7 (human breast cancer cells), MDA-MB-231 (human breast cancer cells) and MDA-MB-468 cells (human breast cancer cells) were maintained in Dulbecco's modified Eagle medium (DMEM, Invitrogen, Carlsbad, Calif.) supplemented with 10% (v/v) fetal calf serum (Sigma, St. Louis, Mo.), 10 μg/mL penicillin and 10 μg/mL streptomycin (Invitrogen, Carlsbad, Calif.) at 37° C. under 5% CO2. On the day of experiment, different concentrations of the drugs (final concentration 10^−8-10^−4 M) in duplicates were added to the cells and the cells were further incubated for 72 h. Then, the number of live cells was quantified by 3-(4,5-dimethyl-2-thiazolyl)-2,5-diphenyl-2H-tetrazolium bromide (MTT reagent, Sigma, St. Louis, Mo.).
(§2) The amount of reduced MTT formazan generated by live cells was determined by its absorbance at 570 nm after subtracting the background absorbance at 690 nm. The percent of cell growth was expressed as (A570(treated)−A570(initial))/(A570(vehicle treated)−A570(initial))*100, where A570(initial) represents initial cell population when drugs are added. The GI50 were derived from non-linear regression analysis of the dose-response curve using Prism 4.0 (GraphPad). […] Data were presented as mean±SD of at least two measurements in duplicates unless noted.

Series [3] concerns A549 (human lung cancer cells). In words: MTT cell growth inhibition, 72 h, A549. It counts as cell-based. The note with it: A549, 72 h, read-out: A549 (GI50). As for the experimental part:
as §1, §2

In series [4] the test system is MCF-7 (human breast cancer cells). In words: MTT cell growth inhibition, 72 h, MCF-7. It counts as cell-based. The note with it: MCF7, 72 h, read-out: MCF-7 (GI50). As for the experimental part: as §1, §2

`NCCCOc1cc2ccccc2cc1C(=O)NCCCOc1cc2ccccc2cc1C(=O)Nc1ccc(Cl)cc1O` [Compound 4]: the “effect on mouse body weight” value in series [1] (PO 120, 60, 30 mg/kg QD for five days, body weight 11 days) was “no different from vehicle”. Besides, the tolerability entry in series [1] (doses as high as 120 mg/kg per os, QD for five days) is “well-tolerated”. Besides, the GI50 (in general, the concentration that inhibits growth by half) came to 0.21 ± 0.071 µM in series [2], 0.3 µM in series [3] and 0.14 ± 0.029 µM in series [4].
